Earlier results, collected in US20070275062A1, “Controlled release oxycodone compositions” (priority 1993, published 2007).
Like-named read-outs stand apart in the source and are kept apart here.

System: pain
Conditions: for dose-response slopes: Beaver, et al.

Structure (SMILES): COc1ccc2c3c1O[C@H]1C(=O)CC[C@@]4(O)[C@@H](C2)N(C)CC[C@]314 [oxycodone]
- parallelism of the dose-response curves (in comparison with other oral and parenteral opioids): no substantial deviation from parallelism
- dose-response slopes (oral as compared to parenteral oxycodone): comparable dose-response slopes
- dose-response slopes (parenteral oxycodone as compared to parenteral morphine): comparable dose-response slopes
